Results published in patent publication US20050032904A1, “Composition and use of allylamine derivatives” (priority 2003, published 2005).

What was measured:
HT 29 cells = experiment: Flow cytometry (FACS) cell cycle analysis; assay type: cell-based, human
Hep G2 cells = experiment: Flow cytometry (FACS) cell cycle analysis; assay type: cell-based, human; conditions: various concentrations of TB, 15 h after release from quiescence; dose-dependent
[1] = system: cell cycle regulatory proteins in COLO 205 cells; experiment: Western blot of cell cycle regulatory proteins; assay type: cell-based, human
Description: They were then returned to culture media supplemented with 10% FCS and 0.05% DMSO with or without TB (60 μM), and at various times thereafter, they were harvested for protein extraction and Western blot analysis. Based on the FACS analysis in the COLO 205 cells, 0, 15, 18 and 24 h after release from quiescence represents the G0/G1, S, G2/M and 2nd G0/G1 phase of the cell cycle, respectively. (FIG. 2A). Accordingly, these time points were selected for protein extraction and Western blot analysis to examine the effects of TB on the expression of cell cycle regulatory proteins. In FIG. 6, (A) In the DMSO-treated COLO 205, 10% FCS caused a transit increase in p21/Cip1 protein (upper panel). […] The COLO 205 cells were synchronized with 0.04% FCS for 24 h, and then released into complete medium (10% FCS) containing TB (60 μM) for the indicated time points. COLO 205 cells were also treated with DMSO (0.05%, v/v) as a control group. Protein extracts (100 μg/lane) were separated by SDS-PAGE, probed with specific antibodies, and detected using the NBT/BCIP system. […] (LaBaer J, et. al., Genes & Development 1997;11(7):847-62.).
In contrast, TB induced apoptosis in the HL 60 (p53 null) and Hep 3B (p53 partial deleted). […] To further test this hypothesis, the dose effects of TB on the levels of cell cycle regulatory protein were conducted in four different human cancer cell lines, COLO 205 (p53 wild type), HT 29 (p53 His^273 mutant), Hep 3B (p53 partial deleted) and HL 60 (p53 null). […] The cells were rendered quiescent for 24 h, and then challenged with 10% FCS and treated with various concentrations of TB (60-150 μM) for additional 15 h. Protein extracts (100 μg/lane) were separated by SDS-PAGE, probed with specific antibodies, and detected using the NBT/BCIP system. Membranes were also probed with anti-GAPDH antibody to correct for differences in protein loading.
As previously described (Chen R J, et. al., Toxicology & Applied Pharmacology 2000;169(2):132-41.), the frozen tumor was pulverized in liquid N2, and then mixed with lysis buffer (Tris-HCl 0.5 M, pH 6.8, SDS 0.4%). For cell cultures, the cells were seeded onto 150-mm dishes and grown in RPMI 1640 (for COLO 205, HT 29 and HL 60 cells) or MEM (for Hep 3B) supplemented with 10% FCS. After the cells had grown to subconfluence, they were rendered quiescent. The cells were released from quiescence with culture medium supplemented with 10% FCS. TB in 0.05% DMSO or 0.05% DMSO without TB was added to the cells at various concentrations and the mixture was allowed to incubate for 17 h. Western blot analysis was performed as previously described (Chen R J, et. al., Toxicology & Applied Pharmacology 2000;169(2):132-41; Lee W S, et. al., Circulation Research 1998;82(8):845-51.). Immunodetection was carried by probing with proper dilutions of specific antibodies at room temperature for 2 h. Anti-p21/Cip1, anti-p27/Kip1, anti-p53, anti-GAPDH monoclonal antibodies (Santa Cruz, Inc. CA); anti-cyclin B1, D1, and D3, anti-cdk2 and cdk4, and PCNA monclonal antibodies (Transduction Laboratories, Lexington, Ky.) were used at a concentration of 1:1,000 dilution. Anti-cyclin A and E polyclonal antibodies (Transduction, San Diego, Calif.) were used at a concentration of 1:250 dilution. The secondary antibodies, alkaline phosphatase-coupled anti-mouse or anti-rabbit antibody (Jackson, Westgrove Pa.), was incubated at room temperature for 1 h at a concentration of 1:5,000 or 1:1,000 dilution, respectively. The specific protein complexes were identified by incubating with the colorigenic substrates (nitro blue tetrazolium, NBT, and 5-bromo-4-chloro-3-indolyl-phosphate, BCIP; Sigma Chemical Co., St. Louis, Mo.). In each experiment, membranes were also probed with anti-GAPDH antibody to correct for differences in protein loading.

[2] = system: p53 and p21/Cip1 protein in COLO 205 tumor; experiment: Western blot of COLO 205 tumor; assay type: in vivo, nude mouse; conditions: tumor isolated at 6 weeks after TB treatment
Description: Western blot analyses show the levels of p53 and p21/Cip1 protein in COLO 205 tumor (C). COLO 205 tumors were isolated for protein extraction at 6 weeks after DMSO or TB treatment. Membranes were also probed with anti-GAPDH antibody to correct for differences in protein loading. […] Western blot analysis was performed as previously described (Chen R J, et. al., Toxicology & Applied Pharmacology 2000;169(2):132-41; Lee W S, et. al., Circulation Research 1998;82(8):845-51.). Immunodetection was carried by probing with proper dilutions of specific antibodies at room temperature for 2 h. Anti-p21/Cip1, anti-p27/Kip1, anti-p53, anti-GAPDH monoclonal antibodies (Santa Cruz, Inc. CA); anti-cyclin B1, D1, and D3, anti-cdk2 and cdk4, and PCNA monclonal antibodies (Transduction Laboratories, Lexington, Ky.) were used at a concentration of 1:1,000 dilution. Anti-cyclin A and E polyclonal antibodies (Transduction, San Diego, Calif.) were used at a concentration of 1:250 dilution. […] In each experiment, membranes were also probed with anti-GAPDH antibody to correct for differences in protein loading.

[3] = system: p53, p21/Cip1 and p27/Kip1 protein in COLO 205 tumor tissues; experiment: Immunocytochemical staining of COLO 205 tumor tissues; assay type: in vivo, nude mouse; conditions: TB-treated vs DMSO-treated nude mice
[4] = cited from earlier work
[5] = TB 60-150 μM, 15 h, dose-dependent

CN(C/C=C/C#CC(C)(C)C)Cc1cccc2ccccc12 [TB, 1-Naphthalenemethanamine, N-(6,6-dimethyl-2-hepten-4-ynyl)-N-methyl-, (E)-]
accumulation of cells at the G0/G1 phase (HT 29 cells; 90 μM TB after release from quiescence): > 90%
G0/G1 arrest, dose effect (HT 29 cells; various concentrations of TB, 15 h after release from quiescence, dose-dependent): induced G0/G1 arrest
G0/G1 arrest, dose effect (Hep G2 cells): induced G0/G1 arrest
p53 and p21 electrophoretogram bands ([1]; 60 μM TB alone, 15 h): increased in intensity
p21/Cip1 protein level, time effect ([1]; TB 60 μM after release from quiescence): persistent increase
p27/Kip1 protein levels, time effect ([1]; TB 60 μM, 0-24 h after 10% FCS): maintained at high levels
Cyclin A2 and cyclin B levels ([1]; TB 60 μM, time course): also downregulated
level of pRB protein (phosphorylated Rb) ([1]; TB 60 μM, time course): downregulated
levels of cyclin D1 and PCNA protein ([1]; TB 60 μM, time course): not changed
levels of cyclin D3, cdk2 and cdk4 protein ([1]; TB 60 μM, time course): downregulated
levels of cyclin E protein ([1]; TB 60 μM, time course): slightly elevated
levels of cyclin D3 and cdk4, dose effect [1, 5]: decreased
levels of p53, p21/Cip1 and p27/Kip1 protein, dose effect [1, 5]: increased
contents of p53 and p21/Cip1 in tumor [2]: increased
p53, p21/Cip1 and p27/Kip1 immunoreactivities in tumor tissues [3]: strongly induced
tissue accumulation ([4]; adipose tissues, keratin-rich tissues (dermis, epidermis, nail) and other organ tissues): extensively accumulates
tissue concentrations relative to plasma ([4]; as early as 1 day after stop of medication): exceeded that of plasma
